Data taken from patent publication US20250206732A1, “COMPOUNDS AND METHODS FOR THE TARGETED DEGRADATION OF KRAS” (Arvinas Operations, Inc., priority 2022, published 2025).

Target: T1, AsPC-1 HiBiT-KRASG12D (Homo sapiens, UniProt P01116, G12D)
T1 construct: insert the HiBiT tag onto the N-terminus of one or more of the endogenous KRAS alleles; endogenous in cells; host or cells: AsPC-1 (ATCC CRL-1682), CRISPR-Cas9 knock-in clone, one tagged allele
Experiment: HiBiT degradation assay (G12D), AsPC-1 HiBiT-KRASG12D cells
Type: cell-based
Details: 24 hours treatment; for Dmax: ASPC1, AsPC-1 HiBiT-KRASG12D cells; for DC50: HiBiT luminescence
Outline: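 HiBiT-KRAS abundance was read as Nano-Glo HiBiT lytic luminescence (45 min, room temperature) after a PBS wash. Before that, a 4 h alamar blue fluorescence read, normalized to DMSO, monitored viability. Treatment lasted 24 hours at 37 °C, in triplicate, using AsPC-1 cells with endogenous N-terminally HiBiT-tagged KRAS G12D.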

T1 sequence (P01116 1-188 isoform P01116-2 G12D): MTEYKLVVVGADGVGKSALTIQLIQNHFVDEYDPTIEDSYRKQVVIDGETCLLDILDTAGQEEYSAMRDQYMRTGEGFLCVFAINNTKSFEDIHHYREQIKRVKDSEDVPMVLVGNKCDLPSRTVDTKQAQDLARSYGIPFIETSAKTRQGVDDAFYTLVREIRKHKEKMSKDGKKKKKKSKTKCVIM

Row | Structure (SMILES) | Dmax (maximum degradation observed) | DC50 (AsPC-1 HiBiT-KRASG12D cells) | AsPC-1 HiBiT-KRASG12D DMax (AsPC-1 HiBiT-KRASG12D cells, maximum degradation observed)
1 | CCc1cccc2cccc(-c3ncc4c(N5CC6CCC(C5)N6)nc(OC[C@]56CCCN5[C@H](COc5cc([C@H](C(=O)N7C[C@H](O)C[C@H]7C(=O)N[C@@H](C)c7ccc(-c8scnc8C)cc7)C(C)C)on5)CC6)nc4c3F)c12 [Compound 309, (2S,4R)-1-[(2R)-2-[3-[[(3S,8R)-8-[[4-(3,8-diazabicyclo[3.2.1]octan-3-yl)-7-(8-ethyl-1-naphthyl)-8-fluoro-pyrido[4,3-d]pyrimidin-2-yl]oxymethyl]-1,2,3,5,6,7-hexahydropyrrolizin-3-yl]methoxy]isoxazol-5-yl]-3-methyl-butanoyl]-4-hydroxy-N-[(1S)-1-[4-(4-methylthiazol-5-yl)phenyl]ethyl]pyrrolidine-2-carboxamide] | < 20% | < 600 nM | 
2 | CCc1cccc2cc(O)cc(-c3ncc4c(N5CC6CCC(C5)N6)nc(OC[C@@]56CCCN5[C@H](COC(=O)N5CC7(C5)CN(c5cc([C@@H](C(=O)N8C[C@H](O)C[C@H]8C(=O)N[C@@H](C)c8ccc(-c9scnc9C)cc8)C(C)C)on5)C7)CC6)nc4c3F)c12 [Compound 113, [(3S,7aS)-7a-{[(4-{3,8-diazabicyclo[3.2.1]octan-3-yl}-7-(8-ethyl-3-hydroxynaphthalen-1-yl)-8-fluoropyrido[4,3-d]pyrimidin-2-yl)oxy]methyl}-hexahydro-1H-pyrrolizin-3-yl]methyl 6-{5-[(2S)-1-[(2S,4R)-4-hydroxy-2-{[(1S)-1-[4-(4-methyl-1,3-thiazol-5-yl)phenyl]ethyl]carbamoyl}pyrrolidin-1-yl]-3-methyl-1-oxobutan-2-yl]-1,2-oxazol-3-yl}-2,6-diazaspiro[3.3]heptane-2-carboxylate] | 20 to 60% | < 600 nM | 
3 | CCc1cccc2cc(O)cc(-c3ncc4c(N5CC6CCC(C5)N6)nc(OC[C@@]56CCCN5[C@H](COC(=O)N5CCN(c7cc([C@@H](C(=O)N8C[C@H](O)C[C@H]8C(=O)N[C@@H](C)c8ccc(-c9scnc9C)cc8)C(C)C)on7)[C@H](C)C5)CC6)nc4c3F)c12 [Compound 341, [(3S,8S)-8-[[4-(3,8-diazabicyclo[3.2.1]octan-3-yl)-7-(8-ethyl-3-hydroxy-1-naphthyl)-8-fluoro-pyrido[4,3-d]pyrimidin-2-yl]oxymethyl]-1,2,3,5,6,7-hexahydropyrrolizin-3-yl]methyl (3R)-4-[5-[(1S)-1-[(2S,4R)-4-hydroxy-2-[[(1S)-1-[4-(4-methylthiazol-5-yl)phenyl]ethyl]carbamoyl]pyrrolidine-1-carbonyl]-isobutyl]isoxazol-3-yl]-3-methyl-piperazine-1-carboxylate] |  | > 3000 nM | 
4 | CCc1cccc2cc(O)cc(-c3ncc4c(N5CC6CCC(C5)N6)nc(OCCN5CCC(CC6CN(CC(=O)N[C@H](C(=O)N7C[C@H](O)C[C@H]7C(=O)N[C@@H](C)c7ccc(-c8scnc8C)cc7)C(C)(C)C)C6)CC5)nc4c3F)c12 [Compound 273, (2S,4R)-1-[(2S)-2-(2-{3-[(1-{2-[(4-{3,8-diazabicyclo[3.2.1]octan-3-yl}-7-(8-ethyl-3-hydroxynaphthalen-1-yl)-8-fluoropyrido[4,3-d]pyrimidin-2-yl)oxy]ethyl}piperidin-4-yl)methyl]azetidin-1-yl}acetamido)-3,3-dimethylbutanoyl]-4-hydroxy-N-[(1S)-1-[4-(4-methyl-1,3-thiazol-5-yl)phenyl]ethyl]pyrrolidine-2-carboxamide] | 80 to 100% | < 600 nM | 
5 | CCc1cccc2cc(O)cc(-c3ncc4c(N5CC6CCC(C5)N6)nc(OCCN5CCC(CC6CCN(c7cc(C(C(=O)N8C[C@H](O)C[C@H]8C(=O)N[C@@H](C)c8ccc(-c9scnc9C)cc8)C(C)C)on7)CC6)CC5)nc4c3F)c12 (single isomer, unassigned) [Compound 320] |  | < 600 nM | A (80% < A ≤ 100%)
6 | CCc1cccc2cc(O)cc(-c3ncc4c(N5CC6CCC(C5)N6)nc(OCCN5CCC(CCC6CN(c7cc([C@H](C(=O)N8C[C@H](O)C[C@H]8C(=O)N[C@@H](C)c8ccc(-c9scnc9C)cc8)C(C)C)on7)C6)CC5)nc4c3F)c12 (single isomer, unassigned) [Compound 250, (2S,4R)-1-[(2R*)-2-(3-{3-[2-(1-{2-[(4-{3,8-diazabicyclo[3.2.1]octan-3-yl}-7-(8-ethyl-3-hydroxynaphthalen-1-yl)-8-fluoropyrido[4,3-d]pyrimidin-2-yl)oxy]ethyl}piperidin-4-yl)ethyl]azetidin-1-yl}-1,2-oxazol-5-yl)-3-methylbutanoyl]-4-hydroxy-N-[(1S)-1-[4-(4-methyl-1,3-thiazol-5-yl)phenyl]ethyl] pyrrolidine-2-carboxamide] | 80 to 100% | < 600 nM | 
7 | CCc1cccc2cc(O)cc(-c3ncc4c(N5CCCCCC5)nc(OC[C@]56CCCN5[C@H](COC(=O)N5CCC(Oc7cc([C@@H](C(=O)N8C[C@H](O)C[C@H]8C(=O)N[C@@H](C)c8ccc(-c9scnc9C)cc8)C(C)C)on7)CC5)CC6)nc4c3F)c12 [Compound 282, [(3S,8R)-8-[[4-(azepan-1-yl)-7-(8-ethyl-3-hydroxy-1-naphthyl)-8-fluoro-pyrido[4,3-d]pyrimidin-2-yl]oxymethyl]-1,2,3,5,6,7-hexahydropyrrolizin-3-yl]methyl 4-[5-[(1S)-1-[(2S,4R)-4-hydroxy-2-[[(1S)-1-[4-(4-methylthiazol-5-yl)phenyl]ethyl]carbamoyl]pyrrolidine-1-carbonyl]-2-methyl-propyl]isoxazol-3-yl]oxypiperidine-1-carboxylate] | < 20% | 600 to 1000 nM | 
8 | CCc1cccc2cc(O)cc(-c3ncc4c(N5CC6CCC(C5)N6)nc(OC[C@@]56CCCN5[C@H](COC(=O)N5CCC(Oc7cc([C@H](C(=O)N8C[C@H](O)C[C@H]8C(=O)N[C@@H](C)c8ccc(-c9scnc9C)cc8)C(C)C)on7)CC5)CC6)nc4c3F)c12 [Compound 117, [(3S,7aS)-7a-{[(4-{3,8-diazabicyclo[3.2.1]octan-3-yl}-7-(8-ethyl-3-hydroxynaphthalen-1-yl)-8-fluoropyrido[4,3-d]pyrimidin-2-yl)oxy]methyl}-hexahydro-1H-pyrrolizin-3-yl]methyl 4-({5-[(2R)-1-[(2S,4R)-4-hydroxy-2-{[(1S)-1-[4-(4-methyl-1,3-thiazol-5-yl)phenyl]ethyl]carbamoyl}pyrrolidin-1-yl]-3-methyl-1-oxobutan-2-yl]-1,2-oxazol-3-yl}oxy)piperidine-1-carboxylate] | 80 to 100% | < 600 nM | 
9 | CCc1cccc2cc(O)cc(-c3ncc4c(N5CC6CCC(C5)N6)nc(OCCN5CCC(CC6(F)CN(CC(=O)N[C@H](C(=O)N7C[C@H](O)C[C@H]7C(=O)N[C@@H](C)c7ccc(-c8scnc8C)cc7)C(C)(C)C)C6)CC5)nc4c3F)c12 [Compound 263, (2S,4R)-1-[(2S)-2-(2-{3-[(1-{2-[(4-{3,8-diazabicyclo[3.2.1]octan-3-yl}-7-(8-ethyl-3-hydroxynaphthalen-1-yl)-8-fluoropyrido[4,3-d]pyrimidin-2-yl)oxy]ethyl}piperidin-4-yl)methyl]-3-fluoroazetidin-1-yl}acetamido)-3,3-dimethylbutanoyl]-4-hydroxy-N-[(1S)-1-[4-(4-methyl-1,3-thiazol-5-yl)phenyl]ethyl]pyrrolidine-2-carboxamide] | 80 to 100% | < 600 nM | 
